Data as given in patent US20240209353A1, “NADK2 INHIBITION IN CANCER AND FIBROTIC DISORDERS” (Memorial Sloan-Kettering Cancer Center, priority 2021, published 2024).
Values joined by “and” are separate entries in the source; they are usually repeats but may differ in a detail not shown here. Equal entries are not always repeated.

Test system: immunopurified mitochondria of DLD1-OMP25HA cells
Test: LC-MS metabolomic profiling, Mito-IP samples
Type: cell-based, human
Description: Rapid immunopurification of mitochondria was performed following the published methodology (4). In brief, cells with control or NADK2 knockout were engineered to express the HA-tagged OMP25 protein (Addgene, 83356); or in the case of FIG. 5E, parental DLD1 cells were engineered to express the HA-tagged OMP25 protein or the Myc-tagged OMP25 protein (Addgene, 83355), 30 million cells were washed and dounce homogenized in KPBS (136 mM KCl and 10 mM KH2PO4, pH 7.25). The homogenate was then cleared by centrifugation and the supernatant was applied to anti-HA beads (Thermo Fisher, 88837) and incubated with rotation for 3.5 min. The resultant beads were washed with KPBS and were eluted for different downstream analyses: Triton X-100 lysis buffer (50 mM Tris-HCl, pH 7.4, 150 mM NaCl, 1 mM EDTA, 1% (vol/vol) Triton X-100, and protease inhibitors) was used to elute mitochondria for Western blot analysis; 80:20 methanol:water containing 1.5 μM ^13C^15N labeled amino acids (Cambridge Isotope Laboratories, MSK-A2-1.2) was used to elute mitochondria for liquid chromatography-mass spectrometry (LC-MS) analysis; 80:20 methanol:water was used to elute mitochondria for NAD(H) and NADP(H) measurements; glutathione lysis buffer (see below) was used to elute mitochondria for GSH measurements.
For negative ionization mode liquid chromatography separation was achieved on an iHILIC-(P) Classic column (100 mm×2.1 mm, 5 μm particle size, HILICON). Mobile phase A was 10 mM ammonium bicarbonate in 10:90 acetonitrile:water with 5 μM medronic acid, pH 9.4 and mobile phase B was 10 mM ammonium bicarbonate in 90:10 acetonitrile:water with 5 μM medronic acid, pH 9.4). The gradient was 0 min, 95% B; 15 min, 50% B; 18 min, 50% B; 19 min, 95% B; 19.10 min, 95% B; 25.5 min, 95% B; 2 mins posttime. Other LC parameters were: flow rate: 200 μL/min; column temperature: 40° C., and injection volume was 2 μL. MS parameters were: gas temp: 300° C.; gas flow: 10 L/min; nebulizer pressure: 40 psig; sheath gas temp: 350° C.; sheath gas flow: 12 L/min; VCap: 3,000 V; fragmentor: 125 V. Data were acquired from m/z 50-1700 with active reference masses correction (m/z: 121.05087 and 922.00980 (positive mode) or m/z: 119.03632 and 980.01638 (negative mode). Peak identification and integration were done based on in-house exact mass and retention time library built from commercial standards. Data analysis and natural isotope abundance correction were performed using MassHunter Profinder software v10.0 (Agilent Technologies).
For metabolomic profiling of the Mito-IP samples, dried extracts were resuspended in 30 μL of 60:40 acetonitrile:water and an additional 7.5 μL of 100% methanol added to prevent phase separation. Samples were vortexed, incubated on ice for 20 min, and clarified by centrifugation at 20,000 g for 20 min at 4° C. LC-MS analysis was using the iHILIC-(P) Classic negative method described with 6545 Q-TOF mass spectrometer (Agilent Technologies). Whole cell extracts were analyzed in parallel and data analysis was performed using MassHunter Profinder v10.0 software (Agilent Technologies). Metabolite identifications reported were based on either (a) exact mass and retention times matched to authentic standards (denoted as RT in Tables 1A-1G) or (b) exact mass and MS2 spectra match using SIRIUS software (denoted as MS2 in Tables 1A-1G) (https://bio.informatik.uni-jena.de/software/sirius/). Metabolites were considered to be mitochondrial if the average peak area measured in anti-HA Mito-IPs from HA-tagged OMP25 cells was at least 1.5-fold more than in anti-HA Mito-IPs from the control cell expressing Myc-tagged OMP25 (scc Tables 1A-1G; FC>1.5 for [OMP25HA sgCtrl MitoIP vs. OMP25Myc MitoIP]).

[1] = DLD1-OMP25HA sgCtrl + Piericidin MitoIP, 5 μM 2 hours, rep01-rep03

For `C/C=C(\C)[C@H](O)[C@H](C)/C=C(C)/C=C/C/C(C)=C/Cc1nc(OC)c(OC)c(O)c1C` [piericidin], the 2-aminoadipate level [1] was 62966 and 65899 and 79200, the 3-hydroxy-3-methylglutarate level [1] was 65452 and 77263 and 90857 and the 3-hydroxyhexadecanoate level [1] was 154313 and 165893 and 273073. The alpha-ketoglutarate level [1] was 36956 and 33481 and 64213, the carbamoyl aspartate level [1] was 61946 and 44834 and 50496 and the citrate level [1] was 2652773 and 2956510 and 3197992. For the same compound, the dodecanoate level [1] was 117632035 and 108567664 and 182339246, the galactonic acid level [1] was 79663 and 109571 and 76436 and the glutamine level [1] was 58654 and 57894 and 67465. For the same compound, the “glutathione, reduced (GSH) level” value [1] was 5666886 and 8127441 and 4704089, the lactate level [1] was 2355878 and 2582709 and 1383509 and the malate level [1] was 78861 and 87997 and 101969. For the same compound, the methylmalonate level [1] was 49637 and 60988 and 87945, the “methylthioribulose 1-phosphate level” value [1] was 78919 and 79663 and 140471 and the “nicotinamide adenine dinucleotide, reduced (NADH) level” value [1] was 3526961 and 3705811 and 4542289. For the same compound, the oleate level [1] was 3976796 and 4283346 and 4070066, the palmitate level [1] was 58619197 and 59278003 and 34887756 and the pentadecanoic acid level [1] was 988055 and 823203 and 616849. For the same compound, the phenylacetate level [1] was 206078 and 155618 and 258772, the phosphoglycolic acid level [1] was 12625 and 17645 and 24712 and the succinate level [1] was 32755 and 39006 and 43999. The taurine level [1] was 3028424 and 3328577 and 3010797, the “uridine 5′-monophosphate (UMP) level” value [1] was 149496 and 116561 and 209899 and the “glutamate and NADH levels in the mitochondria” value (sgCtrl DLD1-OMP25HA cells, 5 μM piericidin for 2 hours before Mito-IP) was “increased”.
